Measurements: PubChem BioAssay (NCI)
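Assay format: 96-well plates, 48-hour exposure. GI50 marks 50% less growth. TGI: total growth inhibition.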

Assays:
Experiment in all cases: growth of human tumour cells (NCI), 48 h
HOP-62 NSCLC = test system: HOP-62 NSCLC
CAKI-1 renal = test system: CAKI-1 renal
HCT-116 colon = test system: HCT-116 colon
U251 CNS = test system: U251 CNS
T-47D breast = test system: T-47D breast
SF-295 CNS = test system: SF-295 CNS
DU-145 prostate = test system: DU-145 prostate
NCI-H460 lung = test system: NCI-H460 lung
NCI-H23 lung = test system: NCI-H23 lung
MCF7 breast = test system: MCF7 breast

Structure (SMILES) | GI50 (HOP-62 NSCLC) | TGI (HOP-62 NSCLC) | GI50 (CAKI-1 renal) | TGI (CAKI-1 renal) | GI50 (HCT-116 colon) | TGI (HCT-116 colon) | GI50 (U251 CNS) | TGI (U251 CNS) | GI50 (T-47D breast) | TGI (T-47D breast) | GI50 (SF-295 CNS) | TGI (SF-295 CNS) | GI50 (DU-145 prostate) | TGI (DU-145 prostate) | GI50 (NCI-H460 lung) | TGI (NCI-H460 lung) | GI50 (NCI-H23 lung) | TGI (NCI-H23 lung) | GI50 (MCF7 breast) | TGI (MCF7 breast)
CCc1ccc2c(c1)N(CCO)C1=C(C(=O)OC1)C2c1cccc(Cl)c1 (stereo unspecified) | 0.774 µM | 15.8 µM | 3.02 µM | 35.1 µM | 0.498 µM | 13.1 µM | 0.499 µM | 15.5 µM | 0.583 µM | 26.4 µM | 0.382 µM | 15.5 µM | 1.67 µM | 13.5 µM | 0.393 µM | 12.5 µM | 0.923 µM | 20.9 µM |  | 
OC1C2CCC1C1C3C=CC(C3)C21 (stereo unspecified) |  | > 100 µM |  | > 100 µM |  | > 100 µM |  | > 100 µM |  |  |  | > 100 µM |  |  |  | > 100 µM |  | > 100 µM |  | 
C=CN(C)S(C)(=O)=O | > 100 µM | > 100 µM | > 100 µM | > 100 µM | > 100 µM | > 100 µM | > 100 µM | > 100 µM | > 100 µM | > 100 µM | > 100 µM | > 100 µM | > 100 µM | > 100 µM | > 100 µM | > 100 µM |  |  | > 100 µM | > 100 µM
O=c1oc2ccc(-n3c(=O)c4ccccc4c4ccccc4c3=O)cc2c2ccccc12 |  | > 100 µM |  | > 100 µM |  | > 100 µM |  | 63.6 µM |  | > 100 µM |  | > 100 µM |  |  |  | > 100 µM |  | > 100 µM |  | > 100 µM
C[n+]1ccc(-c2c3nc(c(-c4cc[n+](C)cc4)c4ccc([n-]4)c(-c4cc[n+](C)cc4)c4nc(c(-c5cc[n+](C)cc5)c5ccc2[n-]5)C=C4)C=C3)cc1.[I-].[Zn+2] | 19.9 µM | 44.2 µM | 20 µM | 41.7 µM | 50.5 µM | > 100 µM | 22 µM | 52.8 µM |  |  | 38 µM | > 100 µM |  |  | 23.5 µM | 53.5 µM | 26.8 µM | 59.2 µM |  | 
O=C(/C(=C/c1ccc([N+](=O)[O-])cc1)SCc1ccc(F)cc1)c1ccc(Cl)cc1 | 18.9 µM | 47.3 µM |  |  |  |  | 2.07 µM | 4.02 µM | 7 µM | 26.2 µM | 7.09 µM | 25.1 µM | 38.6 µM | > 100 µM | 19 µM | > 100 µM | 11 µM | 68.7 µM |  | 
c1ccc2c(c1)[nH]c1c2nc2ncccn21 |  | > 100 µM |  | > 100 µM |  | > 100 µM |  | > 100 µM |  |  |  | > 100 µM |  |  |  | > 100 µM |  | > 100 µM |  | 
O=C(NCC(O)CNC(=O)C(F)(F)F)C(F)(F)F |  | > 100 µM |  | > 100 µM |  | > 100 µM |  | > 100 µM |  |  |  | > 100 µM |  |  |  | > 100 µM |  | > 100 µM |  | 
O=C1c2ccccc2C(=O)N1C/C=C/CO |  | > 100 µM |  | > 100 µM |  | > 100 µM |  | > 100 µM |  |  |  |  |  |  |  | > 100 µM |  |  |  | 
OCC1OC(n2cnc3c(Cl)nc(Cl)cc32)C(O)C1O (stereo unspecified) | > 100 µM | > 100 µM | > 100 µM | > 100 µM | > 100 µM | > 100 µM |  |  | > 100 µM | > 100 µM | > 100 µM | > 100 µM | > 100 µM | > 100 µM | > 100 µM | > 100 µM | > 100 µM | > 100 µM | > 100 µM | > 100 µM
N#C/C(=C/Sc1ccccc1)C(=O)O |  | > 100 µM |  | 79.5 µM |  | 55.8 µM |  | 45.9 µM |  |  |  | > 100 µM |  |  |  | > 100 µM |  | > 100 µM |  | 
COc1cc2c(cc1OC)C(=O)Cc1ccc(OC)c(OC)c1CN(C)CC2 |  | > 100 µM |  | > 100 µM |  | > 100 µM |  | > 100 µM |  |  |  |  |  |  |  | 84.4 µM |  | > 100 µM |  | 
CCCCCCc1nc2nc(Cl)c(Cl)nc2[nH]1 | > 100 µM | > 100 µM | 6.37 µM | > 100 µM | 6.83 µM | > 100 µM | 6.44 µM | > 100 µM | 2.68 µM | > 100 µM |  |  | 83.2 µM | > 100 µM | 5.59 µM | > 100 µM | 3.68 µM | > 100 µM | 4.08 µM | > 100 µM
O=c1oc(=O)c2oc3ccccc3oc1=2 |  | > 100 µM |  | > 100 µM |  | > 100 µM |  | > 100 µM |  |  |  | > 100 µM |  |  |  | > 100 µM |  | > 100 µM |  | 
Clc1cc2n[se]nc2cc1Cl |  | > 100 µM |  | > 100 µM |  | > 100 µM |  | > 100 µM |  |  |  | > 100 µM |  |  |  | > 100 µM |  | > 100 µM |  | 
CCOC(=O)c1ccc(NC(=O)SCCC(=O)O)cc1 |  | > 100 µM |  |  |  | > 100 µM |  | > 100 µM |  |  |  | > 100 µM |  |  |  | > 100 µM |  | > 100 µM |  | 
O=C(COC(=O)c1cccc2c(=O)c3ccccc3[nH]c12)Nc1ccccc1 |  | > 100 µM |  | > 100 µM |  | 88.7 µM |  | > 100 µM |  |  |  | > 100 µM |  |  |  | > 100 µM |  | 58.9 µM |  | 
CCOc1ccccc1NC(=O)CCc1n[nH]c(=S)o1 |  |  |  | > 100 µM |  | > 100 µM |  | > 100 µM |  |  |  | > 100 µM |  |  |  |  |  | > 100 µM |  | 
Cc1nn(C)cc1P(=S)(c1ccccc1)c1ccccc1 |  | > 100 µM |  | > 100 µM |  | > 100 µM |  | > 100 µM |  |  |  | > 100 µM |  |  |  | > 100 µM |  | > 100 µM |  | 
Cc1ccc(-c2nc(N3CCCNCC3)c3oc(-c4ccccc4)nc3n2)cc1 | 1.84 µM | 3.36 µM | 1.65 µM | 3.03 µM |  |  | 1.78 µM | 3.17 µM | 2.02 µM | 4 µM | 1.93 µM | 3.43 µM | 1.89 µM | 3.4 µM | 1.85 µM | 3.5 µM | 1.95 µM | 3.71 µM | 1.59 µM | 3.44 µM
C=C(C)[C@@H]1CC[C@]2(CO)CC[C@]3(C)[C@H](CC[C@@H]4[C@@]5(C)CCC(NCCc6ccc(O)cc6)C(C)(C)[C@@H]5CC[C@]43C)[C@@H]12 (stereo partly specified) |  |  | 1.54 µM | 2.88 µM | 1.39 µM | 2.84 µM | 1.56 µM | 2.98 µM | 1.51 µM | 3.19 µM |  |  | 1.62 µM | 3.03 µM | 1.53 µM | 3 µM | 1.79 µM | 3.35 µM | 0.912 µM | 2.57 µM
